Results: ChEMBL document CHEMBL1743201, “Casarett and Doull's Toxicology The Basic Science of Poisons, 7th edition” (2008)

Experiments:
Assay type in all cases: ADME
[1] = target: T1, UDP-glucuronosyltransferase 2B4 (Homo sapiens, UniProt P06133); experiment: Substrate of human UDP-glucuronosyltransferase UGT2B4
T1 sequence (P06133 whole entry): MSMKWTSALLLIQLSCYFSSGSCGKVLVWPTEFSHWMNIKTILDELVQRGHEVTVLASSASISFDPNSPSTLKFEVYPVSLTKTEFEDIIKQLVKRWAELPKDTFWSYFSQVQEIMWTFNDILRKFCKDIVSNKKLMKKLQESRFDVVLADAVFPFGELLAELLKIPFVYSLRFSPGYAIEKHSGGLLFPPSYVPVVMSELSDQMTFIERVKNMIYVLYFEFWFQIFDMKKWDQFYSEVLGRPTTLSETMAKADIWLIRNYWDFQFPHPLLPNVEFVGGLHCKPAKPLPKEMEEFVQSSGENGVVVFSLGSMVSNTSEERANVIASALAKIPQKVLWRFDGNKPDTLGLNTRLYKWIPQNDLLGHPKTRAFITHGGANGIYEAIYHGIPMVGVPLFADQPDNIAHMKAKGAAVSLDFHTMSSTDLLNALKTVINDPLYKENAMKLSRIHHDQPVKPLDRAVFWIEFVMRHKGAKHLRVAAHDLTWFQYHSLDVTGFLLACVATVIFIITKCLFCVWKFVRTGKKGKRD

Cytochrome P450 2C19 = Cytochrome P450 2C19 (Homo sapiens, UniProt P33261); experiment: Clinically relevant substrates of human liver microsomal P450 enzymes, isoform CYP2C19; settings: microsomes
Cytochrome P450 1A2 [2] = target: T2, Cytochrome P450 1A2 (Homo sapiens, UniProt P05177); experiment: Clinically relevant inducers of human liver microsomal P450 enzymes, isoform CYP1A2; settings: microsomes
T2 sequence (P05177 whole entry): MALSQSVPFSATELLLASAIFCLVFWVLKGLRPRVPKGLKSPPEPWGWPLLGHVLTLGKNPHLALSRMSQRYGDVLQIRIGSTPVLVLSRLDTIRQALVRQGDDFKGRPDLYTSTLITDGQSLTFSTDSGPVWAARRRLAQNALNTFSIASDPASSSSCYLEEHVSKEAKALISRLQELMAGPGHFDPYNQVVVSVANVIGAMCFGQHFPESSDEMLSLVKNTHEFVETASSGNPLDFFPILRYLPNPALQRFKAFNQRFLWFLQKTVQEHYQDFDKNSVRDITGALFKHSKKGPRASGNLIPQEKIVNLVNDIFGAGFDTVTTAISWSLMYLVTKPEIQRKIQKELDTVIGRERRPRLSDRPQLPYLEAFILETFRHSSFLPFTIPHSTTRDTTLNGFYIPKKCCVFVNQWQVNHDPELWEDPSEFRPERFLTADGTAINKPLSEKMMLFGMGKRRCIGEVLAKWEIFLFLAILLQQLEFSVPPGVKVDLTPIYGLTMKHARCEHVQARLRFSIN

[3] = target: T3, UDP-glucuronosyltransferase 1A4 (Homo sapiens, UniProt P22310); experiment: Substrate of human UDP-glucuronosyltransferase UGT1A4
T3 sequence (P22310 whole entry): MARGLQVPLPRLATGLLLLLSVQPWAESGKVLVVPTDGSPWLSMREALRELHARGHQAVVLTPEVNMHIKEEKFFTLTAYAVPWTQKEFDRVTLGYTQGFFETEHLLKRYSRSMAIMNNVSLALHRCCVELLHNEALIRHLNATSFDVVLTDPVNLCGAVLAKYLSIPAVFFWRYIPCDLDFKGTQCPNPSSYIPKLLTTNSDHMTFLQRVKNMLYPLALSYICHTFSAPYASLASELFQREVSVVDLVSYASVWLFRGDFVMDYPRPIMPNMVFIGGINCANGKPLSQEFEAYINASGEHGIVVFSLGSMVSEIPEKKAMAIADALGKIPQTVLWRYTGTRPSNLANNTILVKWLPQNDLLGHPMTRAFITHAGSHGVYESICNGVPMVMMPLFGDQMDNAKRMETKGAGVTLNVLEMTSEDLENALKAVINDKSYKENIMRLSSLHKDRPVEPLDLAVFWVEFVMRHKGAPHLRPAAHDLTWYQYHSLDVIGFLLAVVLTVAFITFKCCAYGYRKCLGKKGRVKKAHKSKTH

Sulfotransferase 1E1 = target: T4, Sulfotransferase 1E1 (Homo sapiens, UniProt P49888); experiment: Major substrate of human cytosolic sulfotransferase SULT1E1
T4 sequence (P49888 whole entry): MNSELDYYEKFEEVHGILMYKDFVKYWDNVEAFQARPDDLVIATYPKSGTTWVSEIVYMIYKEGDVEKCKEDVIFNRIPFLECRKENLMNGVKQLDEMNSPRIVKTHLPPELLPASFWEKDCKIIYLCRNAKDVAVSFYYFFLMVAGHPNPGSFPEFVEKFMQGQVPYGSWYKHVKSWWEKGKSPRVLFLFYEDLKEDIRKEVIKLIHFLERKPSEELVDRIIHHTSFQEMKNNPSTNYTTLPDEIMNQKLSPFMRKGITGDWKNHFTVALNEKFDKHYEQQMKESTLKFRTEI

[4] = target: T5, UDP-glucuronosyltransferase 1A7 (Homo sapiens, UniProt Q9HAW7); experiment: Substrate of human UDP-glucuronosyltransferase UGT1A7
T5 sequence (Q9HAW7 whole entry): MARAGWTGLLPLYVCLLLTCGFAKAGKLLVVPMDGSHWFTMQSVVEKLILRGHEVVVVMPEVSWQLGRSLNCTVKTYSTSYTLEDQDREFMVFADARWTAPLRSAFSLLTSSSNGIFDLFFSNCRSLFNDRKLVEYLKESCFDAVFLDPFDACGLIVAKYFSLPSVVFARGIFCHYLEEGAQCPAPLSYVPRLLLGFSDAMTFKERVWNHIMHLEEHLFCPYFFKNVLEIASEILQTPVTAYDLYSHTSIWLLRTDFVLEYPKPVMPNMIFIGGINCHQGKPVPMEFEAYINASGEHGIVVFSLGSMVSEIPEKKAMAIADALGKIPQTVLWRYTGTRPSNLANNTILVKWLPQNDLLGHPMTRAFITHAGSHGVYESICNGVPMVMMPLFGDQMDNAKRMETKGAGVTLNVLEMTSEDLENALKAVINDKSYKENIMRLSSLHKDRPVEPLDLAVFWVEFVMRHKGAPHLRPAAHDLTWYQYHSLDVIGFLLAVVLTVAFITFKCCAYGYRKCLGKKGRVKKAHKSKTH

Cytochrome P450 2D6 = Cytochrome P450 2D6 (Homo sapiens, UniProt P10635); experiment: Clinically relevant inhibitors of human liver microsomal P450 enzymes, isoform CYP2D6; settings: microsomes
Cytochrome P450 1A2 [5] = target: T2, Cytochrome P450 1A2; experiment: Clinically relevant inhibitors of human liver microsomal P450 enzymes, isoform CYP1A2; settings: microsomes
[6] = target: T6, UDP-glucuronosyltransferase 1A8 (Homo sapiens, UniProt Q9HAW9); experiment: Substrate of human UDP-glucuronosyltransferase UGT1A8
T6 sequence (Q9HAW9 whole entry): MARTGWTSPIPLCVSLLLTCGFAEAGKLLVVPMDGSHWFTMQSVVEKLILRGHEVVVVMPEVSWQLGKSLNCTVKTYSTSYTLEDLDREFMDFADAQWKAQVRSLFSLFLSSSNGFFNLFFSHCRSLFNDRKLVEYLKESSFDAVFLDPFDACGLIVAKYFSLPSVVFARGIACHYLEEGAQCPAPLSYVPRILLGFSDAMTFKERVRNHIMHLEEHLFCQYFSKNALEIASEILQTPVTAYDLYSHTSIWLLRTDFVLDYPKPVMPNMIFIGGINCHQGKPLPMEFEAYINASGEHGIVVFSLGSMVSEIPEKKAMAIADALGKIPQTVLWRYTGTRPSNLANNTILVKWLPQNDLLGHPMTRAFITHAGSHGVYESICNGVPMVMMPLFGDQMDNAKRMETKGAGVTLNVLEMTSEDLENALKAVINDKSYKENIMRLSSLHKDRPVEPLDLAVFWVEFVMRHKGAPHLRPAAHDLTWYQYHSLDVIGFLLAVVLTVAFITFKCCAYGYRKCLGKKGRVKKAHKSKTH

[7] = target: T7, UDP-glucuronosyltransferase 1A10 (Homo sapiens, UniProt Q9HAW8); experiment: Substrate of human UDP-glucuronosyltransferase UGT1A10
T7 sequence (Q9HAW8 whole entry): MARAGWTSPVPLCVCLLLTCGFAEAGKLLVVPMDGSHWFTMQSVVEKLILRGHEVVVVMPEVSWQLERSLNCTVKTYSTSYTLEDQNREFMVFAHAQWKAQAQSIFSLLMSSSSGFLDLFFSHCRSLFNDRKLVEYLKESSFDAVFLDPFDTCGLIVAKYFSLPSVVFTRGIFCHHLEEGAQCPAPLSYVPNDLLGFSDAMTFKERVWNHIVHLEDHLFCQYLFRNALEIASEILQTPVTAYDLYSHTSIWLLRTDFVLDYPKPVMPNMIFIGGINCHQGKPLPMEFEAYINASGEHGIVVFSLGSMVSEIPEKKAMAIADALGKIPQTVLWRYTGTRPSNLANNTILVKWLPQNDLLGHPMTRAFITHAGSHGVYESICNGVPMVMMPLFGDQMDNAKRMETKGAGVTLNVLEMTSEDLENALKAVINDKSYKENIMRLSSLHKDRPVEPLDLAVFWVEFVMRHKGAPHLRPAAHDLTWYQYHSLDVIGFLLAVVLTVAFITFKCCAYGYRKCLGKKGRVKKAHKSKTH

[8] = target: T8, UDP-glucuronosyltransferase 1A6 (Homo sapiens, UniProt P19224); experiment: Substrate of human UDP-glucuronosyltransferase UGT1A6
T8 sequence (P19224 whole entry): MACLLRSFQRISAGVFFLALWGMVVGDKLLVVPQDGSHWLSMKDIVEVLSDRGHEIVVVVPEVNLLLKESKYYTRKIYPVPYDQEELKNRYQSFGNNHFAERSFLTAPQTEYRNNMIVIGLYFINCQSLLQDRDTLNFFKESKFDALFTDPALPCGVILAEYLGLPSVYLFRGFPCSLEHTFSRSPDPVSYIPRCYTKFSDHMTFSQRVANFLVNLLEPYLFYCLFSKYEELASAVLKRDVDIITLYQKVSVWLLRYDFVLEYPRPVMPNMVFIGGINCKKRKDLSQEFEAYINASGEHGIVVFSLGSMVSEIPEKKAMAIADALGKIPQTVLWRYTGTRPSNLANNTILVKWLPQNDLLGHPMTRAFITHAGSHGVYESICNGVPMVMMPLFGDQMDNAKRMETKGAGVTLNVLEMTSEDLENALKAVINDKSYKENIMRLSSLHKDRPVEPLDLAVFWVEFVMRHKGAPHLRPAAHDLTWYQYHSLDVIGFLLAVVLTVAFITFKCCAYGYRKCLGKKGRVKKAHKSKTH

[9] = target: T9, UDP-glucuronosyltransferase 2B15 (Homo sapiens, UniProt P54855); experiment: Substrate of human UDP-glucuronosyltransferase UGT2B15
T9 sequence (P54855 whole entry): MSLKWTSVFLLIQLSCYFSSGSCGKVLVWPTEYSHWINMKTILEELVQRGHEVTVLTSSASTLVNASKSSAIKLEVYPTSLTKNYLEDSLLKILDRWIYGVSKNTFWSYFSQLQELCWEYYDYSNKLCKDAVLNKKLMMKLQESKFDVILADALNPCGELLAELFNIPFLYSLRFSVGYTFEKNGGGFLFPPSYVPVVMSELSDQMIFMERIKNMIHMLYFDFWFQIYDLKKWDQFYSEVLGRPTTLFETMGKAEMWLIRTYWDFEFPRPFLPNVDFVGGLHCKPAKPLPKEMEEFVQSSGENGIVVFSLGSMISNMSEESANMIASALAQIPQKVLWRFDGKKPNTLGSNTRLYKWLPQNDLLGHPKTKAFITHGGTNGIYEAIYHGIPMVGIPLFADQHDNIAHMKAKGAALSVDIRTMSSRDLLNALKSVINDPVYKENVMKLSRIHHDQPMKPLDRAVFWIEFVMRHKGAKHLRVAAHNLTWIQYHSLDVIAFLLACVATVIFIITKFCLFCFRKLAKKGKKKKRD

Cytochrome P450 2D6, sequence (P10635 whole entry, canonical isoform): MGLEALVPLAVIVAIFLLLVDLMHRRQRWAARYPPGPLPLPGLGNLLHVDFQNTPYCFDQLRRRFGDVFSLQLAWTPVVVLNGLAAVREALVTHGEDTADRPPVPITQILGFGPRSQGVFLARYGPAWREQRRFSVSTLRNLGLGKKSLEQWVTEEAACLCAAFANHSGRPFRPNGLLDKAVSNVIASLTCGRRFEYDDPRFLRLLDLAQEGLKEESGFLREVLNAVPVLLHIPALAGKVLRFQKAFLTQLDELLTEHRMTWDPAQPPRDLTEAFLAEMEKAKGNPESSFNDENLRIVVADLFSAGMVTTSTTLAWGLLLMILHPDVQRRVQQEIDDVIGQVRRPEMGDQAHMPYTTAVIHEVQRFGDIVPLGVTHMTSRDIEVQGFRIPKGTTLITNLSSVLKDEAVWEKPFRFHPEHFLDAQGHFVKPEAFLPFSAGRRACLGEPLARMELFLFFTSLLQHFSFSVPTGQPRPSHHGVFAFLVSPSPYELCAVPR
Cytochrome P450 2C19, sequence (P33261 whole entry, canonical isoform): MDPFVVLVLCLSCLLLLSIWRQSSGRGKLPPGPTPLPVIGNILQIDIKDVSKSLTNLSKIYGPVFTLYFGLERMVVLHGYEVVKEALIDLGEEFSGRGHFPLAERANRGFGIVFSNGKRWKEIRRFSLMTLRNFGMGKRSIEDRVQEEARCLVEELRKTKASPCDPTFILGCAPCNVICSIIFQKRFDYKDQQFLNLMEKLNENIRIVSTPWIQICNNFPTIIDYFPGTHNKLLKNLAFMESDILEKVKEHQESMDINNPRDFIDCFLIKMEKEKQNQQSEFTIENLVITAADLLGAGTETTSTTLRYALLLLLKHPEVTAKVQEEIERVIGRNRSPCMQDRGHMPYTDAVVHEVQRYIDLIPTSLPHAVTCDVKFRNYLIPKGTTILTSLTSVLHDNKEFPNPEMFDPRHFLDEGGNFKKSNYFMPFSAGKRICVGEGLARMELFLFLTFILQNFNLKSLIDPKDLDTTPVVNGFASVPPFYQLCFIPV

In the case of `C[C@]12CC[C@@H](O)C[C@@H]1CC[C@@H]1[C@@H]2CC[C@]2(C)C(=O)CC[C@@H]12` [ANDROSTERONE], the Activity [1] is reported as “Substrate”.
With `Cc1c(OCC(F)(F)F)ccnc1C[S+]([O-])c1nc2ccccc2[nH]1` (stereo unspecified) [LANSOPRAZOLE] the Activity (Cytochrome P450 2C19) was “Substrate” and the Activity (Cytochrome P450 1A2 [2]) was “Inducer”.
For `Cc1cc2c(s1)Nc1ccccc1N=C2N1CCN(C)CC1` [OLANZAPINE], the Activity [3] was “Substrate”.
With `Nc1nnc(-c2cccc(Cl)c2Cl)c(N)n1` [LAMOTRIGINE] the Activity [3] was “Substrate”.
`C[C@]12CC[C@@H]3c4ccc(O)c(O)c4CC[C@H]3[C@@H]1CCC2=O` was tested, and the Activity (Sulfotransferase 1E1) was “Substrate” and the Activity [4] was “Substrate”.
For `CN(C/C=C/C#CC(C)(C)C)Cc1cccc2ccccc12` [TERBINAFINE], the Activity (Cytochrome P450 2D6) was “Inhibitor”.
With `CN(C)CCC=C1c2ccccc2C=Cc2ccccc21` [CYCLOBENZAPRINE] the Activity [3] was “Substrate”.
In the case of `Oc1ccc(-c2ccccc2)cc1`, the Activity [4] is reported as “Substrate”.
In the case of `C[C@H](CCC(=O)O)[C@H]1CC[C@H]2[C@@H]3C[C@H](O)[C@@H]4C[C@H](O)CC[C@]4(C)[C@H]3CC[C@]12C` [HYODEOXYCHOLIC_ACID], the Activity [1] is reported as “Substrate”.
With `CN1CCN(CCCN2c3ccccc3Sc3ccc(C(F)(F)F)cc32)CC1` [TRIFLUOPERAZINE] the Activity [3] was “Substrate”.
With `CN[C@H]1CC[C@@H](c2ccc(Cl)c(Cl)c2)c2ccccc21` [SERTRALINE] the Activity (Cytochrome P450 2D6) was “Inhibitor”.
For `COCC(=O)O[C@]1(CCN(C)CCCc2nc3ccccc3[nH]2)CCc2cc(F)ccc2[C@@H]1C(C)C` [MIBEFRADIL], the Activity (Cytochrome P450 2D6) was “Inhibitor”.
With `CN(C)CCC=C1c2ccccc2CCc2ccccc21` [AMITRIPTYLINE] the Activity [3] was “Substrate”.
With `O=c1cc(-c2ccccc2)oc2ccc3ccccc3c12` [BETA-NAPHTHOFLAVONE] the Activity (Cytochrome P450 1A2 [2]) was “Inducer”.
`CN/C(=N/CCSCc1nc[nH]c1C)NC#N` [CIMETIDINE] was tested, and the Activity (Cytochrome P450 1A2 [5]) was “Inhibitor” and the Activity (Cytochrome P450 2D6) was “Inhibitor”.
For `COc1c(C)c2c(c(O)c1C/C=C(\C)CCC(=O)O)C(=O)OC2` [MYCOPHENOLIC ACID], the Activity [4] was “Substrate”, the Activity [6] was “Substrate” and the Activity [7] was “Substrate”.
`Cc1ccc2cc3c(ccc4ccccc43)c3c2c1CC3` [3-METHYLCHOLANTHRENE] was tested, and the Activity (Cytochrome P450 1A2 [2]) was “Inducer”.
In the case of `CCCCCCCCOC(=O)c1cc(O)c(O)c(O)c1` [OCTYL_GALLATE], the Activity [4] is reported as “Substrate”.
In the case of `CCc1c2c(nc3ccc(O)cc13)-c1cc3c(c(=O)n1C2)COC(=O)[C@]3(O)CC` [7-ETHYL-10-HYDROXYCAMPTOTHECIN], the Activity [8] is reported as “Substrate”, the Activity [4] is reported as “Substrate” and the Activity [9] is reported as “Substrate”.
